The series can be described thus: in vitro. The following applies: human, hela cells, % viability.

Molecules are shown by their SMILES.

Broadly, the viability is a read-out of living cells in per cent, often relative to untreated cells. Turning to `CN1CCN(C(=O)c2ccc(-c3ccco3)nc2N(C)C)CC1` [CBK106121], the viability at 28.5 h, 10 µM was determined as 94.4%. `COc1ccc(C(C)C)cc1-c1ccc(C(=O)N2CCN(C)CC2)c(N(C)C)n1` [CBK106130]: the viability at 28.5 h, 10 µM was 88%. To `CN1CCN(C(=O)c2ccc(-c3cccc(C(F)(F)F)c3)nc2N2CCOCC2)CC1` [CBK106194] belongs 94%; to `Cc1csc(-c2ccc(C(=O)N3CCN(C)CC3)c(N3CCOCC3)n2)c1` [CBK106195], 90.8%. Under `Cc1ccc(C(=O)N2CCN(C)CC2)c(N2CCOCC2)n1` [CBK106199] stands 100%; under `COc1ccc2[nH]cc(CCNC(=O)c3ccc(C)nc3N3CCOCC3)c2c1` [CBK106203], 108%; under `CNC(=O)c1ccc(-c2ccco2)nc1N1CCOCC1` [CBK106212], 108%. Under `CNC(=O)c1ccc(-c2cccc(Cl)c2Cl)nc1N1CCOCC1` [CBK106215] stands 109%; under `Cc1ccc(C(=O)Nc2cc(C)nn2C)c(N2CCOCC2)n1` [CBK106221], 104%. With `COc1cccc(NC(=O)c2ccc(-c3ccsc3)nc2NCC2CC2)c1` [CBK106227], the viability at 28.5 h, 10 µM stood at 90.5%. To `COCCNC(=O)c1ccc(-c2ccccc2)nc1NCC1CC1` [CBK106242] belongs 92%; to `COCCNC(=O)c1ccc(-c2ccccc2OC)nc1NCC1CC1` [CBK106246], 103%; to `COCCNC(=O)c1ccc(-c2cc(C)cs2)nc1NCC1CC1` [CBK106259], 106%.

In the case of `COc1ccccc1-c1ccc(C(=O)N(C)CCN(C)C)c(NCC2CC2)n1` [CBK106269], the viability at 28.5 h, 10 µM turned out to be 96.3%. Under `CNC(=O)c1ccc(-c2ccc(C(C)=O)s2)nc1NCC1CC1` [CBK106307] stands 95.3%; under `CC(=O)Nc1nc(-c2ccccc2C)ccc1C(=O)NC1CCCCC1` [CBK106327], 99%.

Take `CC(=O)Nc1nc(-c2ccccc2C)ccc1C(=O)N(C)C` [CBK106328]: the viability at 28.5 h, 10 µM amounted to 94.6%.

Turning to `CC(=O)N(C)c1nc(-c2ccccc2)ccc1C(=O)NCc1ccco1` [CBK106334], the viability at 28.5 h, 10 µM stood at 99.3%. Under `CC(=O)N(C)c1nc(-c2ccccc2)ccc1C(=O)Nc1ccc2c(c1)OCO2` [CBK106342] stands 96.8%; under `CC(=O)N(C)c1nc(-c2ccco2)ccc1C(=O)Nc1cc(C)nn1C` [CBK106356], 89.3%; under `CC(=O)N(C)c1nc(-c2ccccc2C)ccc1C(=O)Nc1cc(C)nn1C` [CBK106357], 88.6%. To `CN(C)c1ncc(-c2ccc(O)cc2)cc1C(=O)NCc1ccc(F)cc1` [CBK106396] belongs 91.5%; to `COCCNC(=O)c1cc(-c2ccc(Cl)cc2)cnc1NS(C)(=O)=O` [CBK106421], 94.4%. Regarding `COCCNC(=O)c1cc(-c2ccccc2C)cnc1NS(C)(=O)=O` [CBK106422], the viability at 28.5 h, 10 µM is 82.9%. With `COc1cccc(-c2cnc(N(C)S(C)(=O)=O)c(C(=O)NC3CCCCC3)c2)c1` [CBK106446], the viability at 28.5 h, 10 µM came out at 109%.

Take `CN(c1ncc(-c2cc3ccccc3o2)cc1C(=O)Nc1ccc2c(c1)OCO2)S(C)(=O)=O` [CBK106464]: the viability at 28.5 h, 10 µM was 101%. To `CN(c1ncc(-c2cc3ccccc3o2)cc1C(=O)NCC(F)(F)F)S(C)(=O)=O` [CBK106479] belongs 114%; to `O=C1CCC(=O)N1CCn1c(=O)n(S(=O)(=O)c2ccc(-c3ccccc3)cc2)c2ccccc21` [CBK106494], 112%. Under `O=C1CCC(=O)N1CCn1c(=O)n(C(=O)CCC2CCCC2)c2ccccc21` [CBK106495] stands 96.8%; under `O=C1CCC(=O)N1CCn1c(=O)n(C(=O)CCCOc2ccc(Cl)cc2)c2ccccc21` [CBK106496], 93.4%; under `COc1ccccc1C(=O)Cn1c(=O)n(S(=O)(=O)c2ccccc2)c2ccccc21` [CBK106497], 90.2%.

Turning to `CCN(CC)c1ccc(C(=O)Cn2c(=O)n(C(=O)c3cccc(S(C)(=O)=O)c3)c3ccccc32)cc1` [CBK106500], the viability at 28.5 h, 10 µM came to 94.2%. Under `CCCS(=O)(=O)n1c(=O)n(CC(=O)c2ccc(N(CC)CC)cc2)c2ccccc21` [CBK106504] stands 105%. With `CN(C)c1cccc2c(S(=O)(=O)n3c(=O)n(CCc4c[nH]c5ccccc45)c4ccccc43)cccc12` [CBK106511], the viability at 28.5 h, 10 µM was determined as 85.8%. As to `CC(C)CCCC(=O)n1c(=O)n(CCc2c[nH]c3ccccc23)c2ccccc21` [CBK106513], the viability at 28.5 h, 10 µM is 89.2%. In the case of `COc1ccc(CCCC(=O)n2c(=O)n(CCc3c[nH]c4ccccc34)c3ccccc32)cc1` [CBK106514], the viability at 28.5 h, 10 µM came to 91.3%. To `CCCS(=O)(=O)n1c(=O)n(CCc2c[nH]c3ccccc23)c2ccccc21` [CBK106515] belongs 87.8%.

With `O=c1n(CC2CCCCC2)c2ccccc2n1S(=O)(=O)c1cccc(Cl)c1` [CBK106521], the viability at 28.5 h, 10 µM was determined as 91.4%. Regarding `O=c1n(CC2CCCCC2)c2ccccc2n1S(=O)(=O)CCc1cccc2ccccc12` [CBK106525], the viability at 28.5 h, 10 µM came out at 101%. Under `CC(C)S(=O)(=O)n1c(=O)n(Cc2ccc(S(C)(=O)=O)cc2)c2ccccc21` [CBK106529] stands 90.3%; under `Cc1noc(C)c1S(=O)(=O)n1c(=O)n(Cc2ccc(S(C)(=O)=O)cc2)c2ccccc21` [CBK106536], 93.4%; under `COc1ccc(Cn2c(=O)n(C(=O)c3cccc(S(C)(=O)=O)c3)c3ccccc32)cc1` [CBK106547], 86.5%. `COc1ccc(Cn2c(=O)n(S(=O)(=O)c3ccc(-c4cc(C(F)(F)F)n(C)n4)s3)c3ccccc32)cc1` [CBK106552]: the viability at 28.5 h, 10 µM was found to be 97.7%. For `CCCS(=O)(=O)n1c(=O)n(Cc2ccc(OC)cc2)c2ccccc21` [CBK106553], the viability at 28.5 h, 10 µM worked out at 99.7%. As to `CC(C)CCCC(=O)n1ccn(CCCOc2ccccc2)c1=O` [CBK106561], the viability at 28.5 h, 10 µM was 101%.

For `Cc1ccccc1-n1ccn(S(=O)(=O)C(C)C)c1=O` [CBK106566], the viability at 28.5 h, 10 µM was 89.7%. To `CC(C)S(=O)(=O)n1ccn(-c2cccc(C(F)(F)F)c2)c1=O` [CBK106577] belongs 88%; to `CN(C)c1cccc2c(S(=O)(=O)n3ccn(-c4cccc(C(F)(F)F)c4)c3=O)cccc12` [CBK106578], 109%; to `O=c1n(-c2cccc(C(F)(F)F)c2)ccn1S(=O)(=O)c1ccc(Cl)c(Cl)c1` [CBK106579], 96.7%.

With `COC(=O)CCCC(=O)n1ccn(-c2cccc(C(F)(F)F)c2)c1=O` [CBK106580], the viability at 28.5 h, 10 µM came to 87.6%. To `CCCS(=O)(=O)n1ccn(-c2cccc(C(F)(F)F)c2)c1=O` [CBK106585] belongs 88.3%; to `CC(C)c1ccc(S(=O)(=O)n2ccn(-c3cccc(C(F)(F)F)c3)c2=O)cc1` [CBK106587], 93.8%. To `CC(C)S(=O)(=O)n1ccn(-c2ccc(N(C)C)cc2)c1=O` [CBK106600] belongs 95.7%; to `CC(C)CCCC(=O)n1ccn(-c2ccc(N(C)C)cc2)c1=O` [CBK106603], 92.7%.

Source of the values: article PMC12040169 (PLOS Biology, 2025).
